Columns and labels:
[1] = molecular target: T1, Angiotensin II receptor (AT-1) type-1 (Rattus norvegicus, UniProt P29089+P25095); assay: In vitro binding affinity to angiotensin II receptor, type 1 in rat adrenal cortex preparation; type: tissue-based
T1 sequence (P29089 whole entry): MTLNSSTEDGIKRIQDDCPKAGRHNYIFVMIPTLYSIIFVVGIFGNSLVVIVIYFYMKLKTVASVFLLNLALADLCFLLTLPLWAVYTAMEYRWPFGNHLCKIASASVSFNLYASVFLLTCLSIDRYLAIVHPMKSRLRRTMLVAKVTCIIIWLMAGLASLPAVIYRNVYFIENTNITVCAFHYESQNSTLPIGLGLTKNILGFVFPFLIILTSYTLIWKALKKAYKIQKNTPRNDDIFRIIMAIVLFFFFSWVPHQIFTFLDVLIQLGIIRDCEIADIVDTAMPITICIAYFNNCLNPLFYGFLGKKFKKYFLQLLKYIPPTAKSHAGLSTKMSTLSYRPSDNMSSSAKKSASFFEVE
T1 sequence (P25095 whole entry): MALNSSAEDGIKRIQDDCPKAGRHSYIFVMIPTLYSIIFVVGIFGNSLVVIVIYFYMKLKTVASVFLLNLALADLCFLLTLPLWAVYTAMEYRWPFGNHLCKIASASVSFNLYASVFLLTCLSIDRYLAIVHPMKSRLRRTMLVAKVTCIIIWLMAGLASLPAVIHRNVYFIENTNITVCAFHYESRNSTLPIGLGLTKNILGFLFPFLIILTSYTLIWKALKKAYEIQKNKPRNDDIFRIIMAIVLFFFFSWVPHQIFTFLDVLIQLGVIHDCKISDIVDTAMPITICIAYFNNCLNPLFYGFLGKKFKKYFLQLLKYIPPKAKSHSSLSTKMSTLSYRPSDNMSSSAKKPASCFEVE

Oryctolagus cuniculus = organism: Oryctolagus cuniculus; assay: In vitro functional antagonism in isolated rabbit aortic rings precontracted by AII; conditions: Aorta
Rattus norvegicus = assay: In vivo percent inhibition of AII induced increase in diastolic blood pressure in pithed rats at a dose of 3 mg/kg, i.d.; type: functional; conditions: Artery, route intraduodenal

Structure (SMILES) | IC50 [1] [nM] | IC50 (Oryctolagus cuniculus) [nM] | inhibition in vivo at 3 mg/kg (Rattus norvegicus) [%]
CCCCc1ccc(CNC(=O)OC(C)(C)C)c(=O)n1Cc1ccc(-c2ccccc2-c2nn[nH]n2)cc1 | 6 | 10 | 68.9
CCCCc1ccc(CN(C)S(=O)(=O)c2ccccc2)c(=O)n1Cc1ccc(-c2ccccc2-c2nn[nH]n2)cc1 | 4.2 | 2 | 68.7
CCCCc1ccc(CNC(=O)NC2CCCCC2)c(=O)n1Cc1ccc(-c2ccccc2-c2nn[nH]n2)cc1 | 21 | 90 | 0
CCCCc1cccc(=O)n1Cc1ccc(-c2ccccc2-c2nn[nH]n2)cc1 | 18 | 4 | 
CCCCc1ccc(CNS(C)(=O)=O)c(=O)n1Cc1ccc(-c2ccccc2-c2nn[nH]n2)cc1 | 2.2 | 2 | 54.8
CCCCc1ccc(CNS(=O)(=O)C(F)(F)F)c(=O)n1Cc1ccc(-c2ccccc2-c2nn[nH]n2)cc1 | 22 |  | 
CCCCNC(=O)NCc1ccc(CCCC)n(Cc2ccc(-c3ccccc3-c3nn[nH]n3)cc2)c1=O | 9 | 10 | 10.3
CCCCc1ccc(CNC(=O)Cc2ccccc2)c(=O)n1Cc1ccc(-c2ccccc2-c2nn[nH]n2)cc1 | 4.1 |  | 
CCCCc1ccc(CNC(=O)CCC)c(=O)n1Cc1ccc(-c2ccccc2-c2nn[nH]n2)cc1 | 5.7 |  | 
CCCCc1ccc(CNC(=O)N(C)C)c(=O)n1Cc1ccc(-c2ccccc2-c2nn[nH]n2)cc1 | 2.9 | 2 | 28
CCCCc1ccc(CN)c(=O)n1Cc1ccc(-c2ccccc2-c2nn[nH]n2)cc1 | 19 | 20 | 2.8
CCCCc1ccc(CN(Cc2ccccc2)C(=O)OC(C)(C)C)c(=O)n1Cc1ccc(-c2ccccc2-c2nn[nH]n2)cc1 | 20 |  | 
CCCCc1ccc(CN(C)S(=O)(=O)c2ccc(C)cc2)c(=O)n1Cc1ccc(-c2ccccc2-c2nn[nH]n2)cc1 | 4.2 | 8 | 
CCCCc1ccc(C#N)c(=O)n1Cc1ccc(-c2ccccc2-c2nn[nH]n2)cc1 | 18 |  | 
CCCCc1ccc(CN(Cc2ccccc2)S(=O)(=O)c2ccc(C)cc2)c(=O)n1Cc1ccc(-c2ccccc2-c2nn[nH]n2)cc1 | 16.5 | 60 | 36.6
CCCCc1ccc(CN(C)S(C)(=O)=O)c(=O)n1Cc1ccc(-c2ccccc2-c2nn[nH]n2)cc1 | 1.2 | 0.2 | 83.4
CCCCc1nc(Cl)c(CO)n1Cc1ccc(-c2ccccc2-c2nn[nH]n2)cc1 |  | 3 | 73.6
CCCCc1ccc(CNC(=O)N(CC)CC)c(=O)n1Cc1ccc(-c2ccccc2-c2nn[nH]n2)cc1 | 6.5 |  | 
CCCCc1ccc(CN(C)C(=O)N(C)C)c(=O)n1Cc1ccc(-c2ccccc2-c2nn[nH]n2)cc1 | 13 |  | 
CCCCc1ccc(CNS(=O)(=O)c2ccccc2)c(=O)n1Cc1ccc(-c2ccccc2-c2nn[nH]n2)cc1 | 4.1 | 7 | 25.2
CCCCc1ccc(CN(CC)S(C)(=O)=O)c(=O)n1Cc1ccc(-c2ccccc2-c2nn[nH]n2)cc1 | 3.5 | 2 | 
CCCCc1ccc(CNCc2ccccc2)c(=O)n1Cc1ccc(-c2ccccc2-c2nn[nH]n2)cc1 | 1.5 | 1 | 12.4
CCCCc1ccc(CN(C(C)C)S(C)(=O)=O)c(=O)n1Cc1ccc(-c2ccccc2-c2nn[nH]n2)cc1 | 1.9 | 0.9 | 82.7
CCCCc1ccc(CNS(=O)(=O)c2ccc(C)cc2)c(=O)n1Cc1ccc(-c2ccccc2-c2nn[nH]n2)cc1 | 3.3 | 9 | 
CCCCc1ccc(CN(Cc2ccccc2)S(C)(=O)=O)c(=O)n1Cc1ccc(-c2ccccc2-c2nn[nH]n2)cc1 | 3.8 | 2 | 41.2
CCCCc1ccc(C)c(=O)n1Cc1ccc(-c2ccccc2-c2nn[nH]n2)cc1 | 6.1 | 7 | 
CCCCc1ccc(CN(Cc2ccccc2)S(=O)(=O)c2ccccc2)c(=O)n1Cc1ccc(-c2ccccc2-c2nn[nH]n2)cc1 | 12 | 20 | 75.7
CCCCc1ccc(CNC(C)=O)c(=O)n1Cc1ccc(-c2ccccc2-c2nn[nH]n2)cc1 | 3.8 | 3 | 8.6
CCCCc1ccc(CN(Cc2ccccc2)C(C)=O)c(=O)n1Cc1ccc(-c2ccccc2-c2nn[nH]n2)cc1 | 2.8 | 1 | 76.3
CCCCc1ccc(CNC(=O)Nc2ccccc2)c(=O)n1Cc1ccc(-c2ccccc2-c2nn[nH]n2)cc1 | 18 | 30 | 0

— ChEMBL document CHEMBL1127261, “3-Substituted 6-butyl-1,2-dihydropyridin-2-ones: A new series of potent nonpeptide angiotensin II receptor antagonists” (Bioorg Med Chem Lett, 1994)
